Reference: paper PMC9257522, “Machine Learning for Discovery of New ADORA Modulators” (Frontiers in Pharmacology, 2022)
Several values for one entry are separate records, joined by “and”; a condition that tells them apart may be missing. Equal entries are not always repeated. Entries after “also recorded” stand apart in the source; their conditions may differ. Structures can show the parent of a compound that is named as a salt. Where two headings read alike, the source gives them in different places.

What was measured:
[1] = system: A3AR; settings: background property of the receptor, no reference given; listed as ADO; cited from earlier work
[2] = system: T1, A2BAR; settings: background property of the receptor, no reference given, cited from earlier work
T1 construct: expressed in transfected cells; host or cells: HEK293

[3] = system: T2, human A1AR; assay: A1AR cAMP assay, HEK293 A1AR Nomad cell line (Innoprot), agonist mode; type: cell-based; settings: compounds at 10 µM, normalized to 10 µM NECA (100%) and vehicle DMSO (0%)
T2 construct: host or cells: HEK293 A1AR Nomad cell line
Excerpt: For screening of the initial compounds predicted by machine learning models to activate A1AR receptor, we used the HEK293 A1AR Nomad cell line, which consists of HEK293 cells stably expressing human A1AR with no tag. This cell line has been designed to assay compounds or analyze their capability to modulate the A1AR. When the agonist binds to A1AR in this engineered cell line a Go protein is activated, which in turn, triggers a cellular response mediated by cAMP inhibition. This cellular response can be measured by quantifying the increase in fluorescence intensity and its cellular distribution. An agonist assay was performed for 29 compounds (predicted to be active by the machine learning model) in the human recombinant HEK293 A1AR Nomad cell line using a fluorescence-based assay. An agonist effect of the compounds was measured by quantifying the changes in the fluorescence emission cAMP Nomad biosensor, this elevation of fluorescence was analyzed using a plate reader Synergy 2 (Biotek, Winooski, VT). The error bars represent the standard deviation among the three replicate wells. The 29 compounds were tested at 10 μM using nonselective AR agonist adenosine-5′-N-ethyluronamide (NECA) at 10 μM as a reference.

[4] = system: T3, A1AR; assay: cAMP assay in AR-expressing HEK293 cells (ALPHAScreen), A1AR; type: cell-based, human; settings: A1AR-expressing HEK cells, cAMP inhibition, Cl-ENBA reference full agonist
T3 construct: expressed in transfected cells; host or cells: HEK293
Method: (§1) HEK293 cells were grown in 96-well plates in DMEM supplemented with 10% fetal bovine serum, 100 Units/ml penicillin, 100 µg/ml streptomycin, and 2 µmol/ml glutamine. […] For A1AR and A3AR, after incubation with agonists for 20 min, forskolin (10 µM) was added and the mixture incubated for an additional 15 min. The reaction was terminated upon removal of the supernatant and addition of 100 µl Tween-20 (0.3%). Intracellular cAMP levels were measured with an ALPHAScreen cAMP assay kit as instructed by the manufacturer (PerkinElmer).

[5] = target: T4, human A1 receptor (Homo sapiens, UniProt P30542); assay: A1AR calcium influx assay in BA/F3 cells (Eurofins); settings: maximum concentration tested 20 µM
T4 sequence (P30542 1-326): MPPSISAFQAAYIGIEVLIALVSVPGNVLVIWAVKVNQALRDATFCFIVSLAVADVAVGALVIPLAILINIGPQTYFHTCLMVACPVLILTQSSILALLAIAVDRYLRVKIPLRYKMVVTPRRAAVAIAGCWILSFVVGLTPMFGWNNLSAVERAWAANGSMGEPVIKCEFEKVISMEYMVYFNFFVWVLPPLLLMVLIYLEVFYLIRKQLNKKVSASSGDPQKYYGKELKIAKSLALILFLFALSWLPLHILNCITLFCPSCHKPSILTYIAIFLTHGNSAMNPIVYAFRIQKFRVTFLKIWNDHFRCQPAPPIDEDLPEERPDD
Method: This assay was performed using the screening services of Eurofins. Evaluation of the agonist activity of compounds at the human A1 receptor expressed in BA/F3 cells was determined by measuring their effect on cytosolic Ca^2+ ion mobilization using a fluorimetric detection method. The cells were suspended in HBSS buffer (Invitrogen) complemented with 20 mM Hepes and then distributed in microplates at a density of 5 × 10^4 cells/well. The fluorescent probe (Fluo8, AAT Bioquest, San Francisco, CA) mixed with probenicid in HBSS buffer (Invitrogen) complemented with 20 mM Hepes (Millipore, Burlington, MA) (pH 7.4) was then added into each well and equilibrated with the cells for 60 min at 30°C. Thereafter, the assay plates were positioned in a microplate reader (FlipR Tetra, Molecular Devices, San Jose, CA), which was used for the addition of the test compound, reference agonist or HBSS buffer (basal control), and for the measurements of changes in fluorescence intensity that varies proportionally to the free cytosolic Ca^2+ ion concentration.

[6] = system: human A2BAR; assay: Radioligand displacement binding, [3H]DPCPX
[7] = system: T2, human A1AR; assay: Radioligand displacement binding, [3H]DPCPX, HEK293 membranes; settings: mean ± standard error, three independent experiments
Method: (§2) HEK293 cells stably expressing the human A1AR, A2AAR, A3AR were cultured in DMEM supplemented with 10% fetal bovine serum, 100 Units/ml penicillin, 100 µg/ml streptomycin, and 2 µmol/ml glutamine. To prepare cell membranes, cells were detached from culture plates by scraping into cold PBS and centrifuged at 250 g for 5 min. The pellets were resuspended in ice-cold PBS buffer (pH 7.4) and then homogenized. After homogenization and suspension, cells were centrifuged at 1,000 g for 10 min, and the pellet was discarded. The suspension was then re-centrifuged at 20,000 g for 60 min at 4°C. […] The aliquots of membrane preparations were stored at −80°C until the binding experiments. For displacement binding assays, membrane preparations (20 µg proteins/tube) were incubated at 25°C for 60 min with a final concentration of [^3H]DPCPX (0.5 nM), [^3H]ZM241385 (1.0 nM), […] [^125I]I-AB-MECA (0.1 nM) for A1AR, A2AAR, A3AR, respectively, in a mixture containing 50 µl of increasing concentrations of a test ligand in a total assay volume of 200 µl of 50 mM Tris HCl, pH 7.4, containing 10 mM MgCl2. Nonspecific binding was determined using 100 µM of XAC. The reaction was terminated by filtration with GF/B filters using a Brandel (Gaithersburg, MD) 24-channel harvester. Filters were placed in scintillation vials containing 5 ml of Hydrofluor scintillation buffer (National Diagnostics, Atlanta, GA) and counted using a Tricarb 2810TR liquid scintillation counter (PerkinElmer, Waltham, MA).

[8] = target: T5, human A2AAR (Homo sapiens, UniProt P29274); assay: Radioligand displacement binding, [3H]ZM241385, HEK293 membranes; settings: mean ± standard error, three independent experiments; for Ki: read-out: Ki, A2A ([3H]ZM241385)
T5 construct: expressed in transfected cells; host or cells: HEK293
T5 sequence (P29274 whole entry): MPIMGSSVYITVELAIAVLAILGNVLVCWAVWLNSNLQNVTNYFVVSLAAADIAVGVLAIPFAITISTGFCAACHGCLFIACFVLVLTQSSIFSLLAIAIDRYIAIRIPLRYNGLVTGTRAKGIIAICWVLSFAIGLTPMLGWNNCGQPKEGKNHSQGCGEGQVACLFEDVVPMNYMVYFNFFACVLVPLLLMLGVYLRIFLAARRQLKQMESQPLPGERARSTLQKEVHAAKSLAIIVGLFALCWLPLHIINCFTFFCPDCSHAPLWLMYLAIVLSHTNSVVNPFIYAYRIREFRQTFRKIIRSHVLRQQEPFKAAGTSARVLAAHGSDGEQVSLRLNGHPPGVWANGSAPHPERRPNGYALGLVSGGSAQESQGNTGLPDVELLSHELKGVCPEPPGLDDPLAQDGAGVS
Method: as §2

[9] = system: T6, A1AR; assay: PathHunter β-Arrestin assay (Eurofins/DiscoverX), agonist mode; type: cell-based; settings: maximum concentration 20 µM; normalized to control agonist CPA and vehicle
T6 construct: host or cells: A1AR-bla U2OS
Method: PathHunter cell lines were expanded from freezer stocks according to standard procedures. […] For agonist determination, cells were incubated with sample to induce response. Intermediate dilution of sample stocks was performed to generate 5X sample in assay buffer. […] Vehicle concentration was 1%. […] Microplates were read following signal generation with a PerkinElmer Envision™ instrument for chemiluminescent signal detection.
(§3) This parental cell line stably expresses a beta‐arrestin/TEV protease fusion protein and the beta‐lactamase reporter gene under the control of a UAS response element. […] We also used a secondary assay PathHunter® β-Arrestin assay, which monitors the activation of A1AR in a homogenous, non-imaging assay format using a technology developed by DiscoverX called Enzyme Fragment Complementation (EFC) with β-galactosidase (β-Gal) as the functional reporter.

[10] = target: T5, human A2AAR; assay: cAMP assay in AR-expressing HEK293 cells (ALPHAScreen), A2AAR; type: cell-based; settings: for cAMP, A2AAR activity (stimulation of cAMP) / Emax: A2AAR-expressing HEK293 cells; for Emax: reference full agonist = 100% stimulation; for EC50: HEK293 cells expressing human A2AAR, absence of antagonist, read-out: EC50, stimulation of cAMP, A2AAR
Method: as §1

[11] = target: T7, human A3AR (Homo sapiens, UniProt P0DMS8); assay: Radioligand displacement binding, [125I]I-AB-MECA, HEK293 membranes; settings: for Ki: read-out: Ki, A3 ([125I]I-AB-MECA)
T7 sequence (P0DMS8 1-318): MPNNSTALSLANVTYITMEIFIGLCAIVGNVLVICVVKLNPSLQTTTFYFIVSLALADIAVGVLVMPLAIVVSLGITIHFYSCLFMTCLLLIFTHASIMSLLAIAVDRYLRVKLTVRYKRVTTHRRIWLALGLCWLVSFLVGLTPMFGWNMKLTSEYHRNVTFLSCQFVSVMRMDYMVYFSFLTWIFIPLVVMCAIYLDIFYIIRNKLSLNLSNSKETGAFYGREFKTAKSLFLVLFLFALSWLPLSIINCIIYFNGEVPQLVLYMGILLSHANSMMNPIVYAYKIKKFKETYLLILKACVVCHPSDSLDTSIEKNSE
Method: as §2

[12] = system: T6, A1AR; assay: A1AR-bla U2OS agonist screen (beta-arrestin/TEV, beta-lactamase reporter; Thermo Fisher); type: cell-based
Method: A1AR-bla U2OS cells are thawed and resuspended in Assay Media (Freestyle media) to a concentration of 312,500 cells/ml. 32 μl of cell suspension (10,000 cells) was added to each well of a 384-well TC-Treated assay plate. Cells in Assay Media were incubated for 16–24 h in the plate at 37°C/5% CO2 in a humidified incubator. 4 μl aliquots of a 10X serial dilution of NECA (control agonist starting concentration, 500 nM) or compounds were added to appropriate wells of the plate. 4 μl of Assay Media was added to all wells to bring the final assay volume to 40 μl. The plate was incubated for 5 h at 37°C/5% CO2 in a humidified incubator. 8 μl of 1 μM substrate + Solution D Loading Solution was added to each well and the plate was incubated for 2 h at room temperature. The plate was read on a fluorescence plate reader.
as §3

[13] = system: T1, A2BAR; assay: cAMP assay in AR-expressing HEK293 cells (ALPHAScreen), A2BAR; type: cell-based
Method: as §1

[14] = target: T7, human A3AR; assay: cAMP assay in AR-expressing HEK293 cells (ALPHAScreen), A3AR; type: cell-based; settings: for cAMP, A3AR agonist activity: A3AR-expressing cells, MRS5698 reference full agonist
Method: as §1

[15] = target: A2AAR; settings: read-out: Ki, A2AAR; A2AAR antagonist; quoted without method, no reference given; cited from earlier work
[16] = mean ± standard error, three independent experiments

Nc1ncnc2c1ncn2[C@@H]1O[C@H](CO)[C@@H](O)[C@H]1O [Adenosine]
Adenosine affinity, A3AR [1]: relatively lower affinity | Adenosine affinity, A2BAR [2]: Low affinity | Adenosine affinity, A2BAR ([2]; listed as ADO): relatively lower affinity

Cc1ccc(S(=O)(=O)/C=C/C#N)cc1 [BAY 11-7082, (E)-3-(4-methylphenylsulfonyl)-2-propenenitrile]
normalized activity with respect to the positive control [3]: 95.74%

N#Cc1ccc(Oc2ccc3c(c2)COB3O)cc1 [Crisaborole]
cAMP, A1AR agonist activity [4]: Not active | cAMP, A1AR agonist activity ([4]; listed as crisaborole): without activity | A1AR agonist activity, calcium influx assay [5]: no activity | A1AR agonist activity, calcium influx assay ([5]; listed as crisaborole): without activity | Inhibition of specific binding, % inhibition at 100 µM, A2B ([3H]DPCPX) [6]: <10% | Inhibition of specific binding, % inhibition at 100 µM, A1 ([3H]DPCPX) [7]: 36.9 ± 3.4% | Inhibition of specific binding, % inhibition at 100 µM, A1 ([3H]DPCPX) ([7]; listed as crisaborole): weakly binding | Inhibition of specific binding, % inhibition at 100 µM, A2A ([3H]ZM241385) ([8]; 100 µM): No significant binding inhibition | inhibition at 100 µM ([8]; read-out: Inhibition of specific binding, % inhibition at 100 µM, A2A ([3H]ZM241385), 100 µM): 31.2 ± 5.6% | activation of A1AR, PathHunter β-Arrestin assay [9]: no activation; also recorded: without activity; also recorded: no agonist activity | cAMP, A2AAR activity (stimulation of cAMP) [10]: Active | Emax [10]: 67% | EC50 [10]: 2.8 µM and 2.78 µM | Inhibition of specific binding, % inhibition at 100 µM, A3 ([125I]I-AB-MECA) ([11]; 100 µM, mean ± standard error, three independent experiments): No significant binding inhibition | inhibition at 100 µM ([11]; read-out: Inhibition of specific binding, % inhibition at 100 µM, A3 ([125I]I-AB-MECA), 100 µM, mean ± standard error, three independent experiments): 28.8 ± 16.3% | normalized activity with respect to the positive control [3]: 98.52% | activation of A1AR, A1AR-bla U2OS cells [12]: no activation; also recorded: without activity; also recorded: no agonist activity | cAMP Emax, A2BAR ([13]; NECA reference full agonist (100%)): Emax = 17% | cAMP accumulation, A2BAR ([13]; weaker than at the A2AAR): increased cAMP accumulation

Cc1nc(-c2ccc(OCC(C)C)c(C#N)c2)sc1C(=O)O [Febuxostat]
cAMP, A1AR agonist activity [4]: Not active | Inhibition of specific binding, % inhibition at 100 µM, A2B ([3H]DPCPX) [6]: <10% | Inhibition of specific binding, % inhibition at 100 µM, A1 ([3H]DPCPX) [7]: 29.8 ± 5.2% | Ki, A2A ([3H]ZM241385) [8]: in the µM range | Ki [8]: 22.9 ± 4.3 µM | cAMP, A2AAR activity (stimulation of cAMP) [10]: Not active | cAMP, A2AAR activity (stimulation of cAMP) ([10]; listed as febuxostat): not | Ki, A3 ([125I]I-AB-MECA) [11, 16]: in the µM range | Ki [11, 16]: 67.3 ± 45.7 µM | normalized activity with respect to the positive control [3]: 94.53%

Fc1ccc([C@@H]2CCNC[C@H]2COc2ccc3c(c2)OCO3)cc1 [Paroxetine, Paroxetine Hydrochloride]
cAMP, A1AR agonist activity [4]: Not active | Inhibition of specific binding, % inhibition at 100 µM, A1 ([3H]DPCPX) [7]: 9.1 ± 3.9% | Ki, A2A ([3H]ZM241385) [8]: in the µM range | Ki [8]: 40.4 ± 9.8 µM | cAMP, A2AAR activity (stimulation of cAMP) [10]: weak activation; also recorded: Active | Emax [10]: 69% | EC50 [10]: 14 µM | Kd ([11]; as worded in the Discussion): 14.5 ± 9.7 µM | Ki, A3 ([125I]I-AB-MECA) [11, 16]: in the µM range | Ki [11, 16]: 14.5 ± 9.7 µM | normalized activity with respect to the positive control [3]: 68.0% | agonist activity at the human A3AR at 100 µM ([14]; 100 µM): did not show any agonist activity | cAMP, A3AR agonist activity [14]: no activation; also recorded: Not active | cAMP, A3AR agonist activity ([14]; listed as paroxetine): Lack of agonist effect | activation of A1AR, A1AR-bla U2OS cells [12]: no activation

CCN(CC)CCOc1ccc2c(c1)C(=O)c1cc(OCCN(CC)CC)ccc1-2 [Tilorone Hydrochloride]
normalized activity with respect to the positive control [3]: 55.9%

CCn1c(=O)c2c(nc(/C=C/c3ccc(OC)c(OC)c3)n2C)n(CC)c1=O [istradefylline, Istradefylline]
Ki [15]: 0.0022 µM
